For assay [1], the target named is T1, PI3K-alpha (Homo sapiens, UniProt P42336).
T1 construct: purchased Upstate Cell Signaling Solutions
The format is biochemical. How it is done: The kinase activity of mTOR enzyme is assessed by incubating purified recombinant enzyme (mTOR(1360-2549)+GBL, prepared in-house) in a reaction mixture containing ATP, MnCl2, and a fluorescently labeled mTOR substrate, e.g., GFP-4E-BP1 (Invitrogen, product #PR8808A). The reaction is stopped by an addition of a Terbium-labeled phospho-specific antibody, e.g., Tb-labeled anti-p4E-BP1 T37/T46, (Invitrogen, product #PR8835A), EDTA, and TR-FRET buffer solution (Invitrogen, Product #PR3756B). Product formation is detected by way of time-resolved fluorescence resonance energy transfer (TR-FRET), which occurs when the phosphorylated substrate and labeled antibody are in close proximity due to phospho-specific binding. Enzymatic activity is measured as an increase in TR-FRET signal using a Perkin Elmer Envision plate reader. The assay is performed in a 384-well Proxiplate Plus (Perkin Elmer. Product #6008269) using the following protocol:
Compound activity is tested in 10 point dose curves starting at the highest final concentration of 10 uM. They are serially diluted in 100% DMSO prior to further dilution with assay buffer. The reaction mixture (8 uls) containing 0.25 nM mTOR+GBL enzyme, 400 nM GFP-4E-BP1, 8 uM ATP, 50 mM Hepes pH 7.5, 0.01% Tween 20, 10 mM MnCl2, 1 mM EGTA, 1 mM DTT, 1% DMSO (+/−compound) is incubated at room temperature for 30 minutes. 8 μL of solution containing 2 nM Tb-anti-p4E-BP1 antibody & 10 mM EDTA diluted TR-FRET buffer is then added and incubated for 30 minutes to stop the reaction. The plate is scanned with the Envision plate reader. Ki values are calculated in Assay Explorer using the Morrison ATP-competitive tight binding equation for Ki apparent determination.
Binding Assays: Initial polarization experiments were performed on an Analyst HT 96-384 (Molecular Devices Corp, Sunnyvale, Calif.). […] After an incubation time of 30 minutes at room temperature, the reactions were stopped by the addition of GRP-1 and PIP3-TAMRA probe (Echelon-Inc., Salt Lake City, Utah) 100 nM and 5 nM final concentrations respectively. […] This experiment also establishes the appropriate protein concentration to use in subsequent competition experiments with inhibitors.
After an incubation time of 30 minutes at room temperature, the reactions were stopped by the addition of GRP-1 and PIP3-TAMRA probe (Echelon-Inc., Salt Lake City, Utah) 100 nM and 5 nM final concentrations respectively.

The target of assay [2] is T2, mTOR kinase (mTOR(1360-2549)+GBL) (Homo sapiens, UniProt P42345).
T2 construct: mTOR(1360-2549)+GBL, prepared in-house; made in house
T2 sequence (P42345 1360-2549): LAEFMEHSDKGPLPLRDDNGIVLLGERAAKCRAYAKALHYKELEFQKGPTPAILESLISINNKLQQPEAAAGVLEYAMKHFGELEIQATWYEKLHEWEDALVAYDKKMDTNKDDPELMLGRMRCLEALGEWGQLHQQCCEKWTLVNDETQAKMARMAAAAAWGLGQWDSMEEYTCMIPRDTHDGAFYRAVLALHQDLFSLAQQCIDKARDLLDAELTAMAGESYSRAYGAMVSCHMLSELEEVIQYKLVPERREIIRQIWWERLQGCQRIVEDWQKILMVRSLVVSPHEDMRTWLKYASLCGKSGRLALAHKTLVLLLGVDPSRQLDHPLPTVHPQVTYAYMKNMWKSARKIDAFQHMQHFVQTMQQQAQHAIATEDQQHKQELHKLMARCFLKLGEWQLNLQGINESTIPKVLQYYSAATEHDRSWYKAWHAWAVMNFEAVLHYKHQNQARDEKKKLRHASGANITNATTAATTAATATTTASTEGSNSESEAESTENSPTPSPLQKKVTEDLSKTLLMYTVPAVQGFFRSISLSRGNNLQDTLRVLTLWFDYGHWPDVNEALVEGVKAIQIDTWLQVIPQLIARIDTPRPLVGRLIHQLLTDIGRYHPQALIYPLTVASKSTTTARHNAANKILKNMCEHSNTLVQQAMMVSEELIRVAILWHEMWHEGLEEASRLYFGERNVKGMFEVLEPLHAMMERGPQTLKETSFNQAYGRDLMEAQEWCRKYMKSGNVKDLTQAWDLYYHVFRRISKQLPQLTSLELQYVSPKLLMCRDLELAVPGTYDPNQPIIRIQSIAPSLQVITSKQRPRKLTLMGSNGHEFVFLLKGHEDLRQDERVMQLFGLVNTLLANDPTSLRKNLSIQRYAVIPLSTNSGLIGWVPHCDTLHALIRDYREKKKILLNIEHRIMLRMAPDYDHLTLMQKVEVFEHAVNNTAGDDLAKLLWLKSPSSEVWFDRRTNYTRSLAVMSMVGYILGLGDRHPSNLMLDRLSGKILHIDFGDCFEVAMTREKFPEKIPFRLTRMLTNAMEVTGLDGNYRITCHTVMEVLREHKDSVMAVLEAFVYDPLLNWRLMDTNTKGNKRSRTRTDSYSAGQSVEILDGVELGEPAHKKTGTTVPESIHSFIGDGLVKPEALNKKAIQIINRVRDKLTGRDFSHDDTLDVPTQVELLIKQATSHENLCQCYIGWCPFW
T2 sequence (Q9BVC4 whole entry partner): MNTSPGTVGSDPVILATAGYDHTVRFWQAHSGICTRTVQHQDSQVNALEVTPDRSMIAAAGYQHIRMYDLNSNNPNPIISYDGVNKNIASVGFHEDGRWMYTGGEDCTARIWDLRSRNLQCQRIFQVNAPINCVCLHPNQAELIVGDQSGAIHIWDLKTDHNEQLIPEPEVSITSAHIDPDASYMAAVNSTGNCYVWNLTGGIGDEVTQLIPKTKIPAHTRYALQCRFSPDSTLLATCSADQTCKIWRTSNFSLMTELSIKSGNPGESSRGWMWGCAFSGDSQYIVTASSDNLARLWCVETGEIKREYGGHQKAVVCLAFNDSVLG
Description: In vitro mTOR kinase assay (TR-FRET). The format is biochemical. The conditions noted are these: read-out: activity level (Ki) in the mTOR kinase assay. How it is done: The reaction is stopped by an addition of a Terbium-labeled phospho-specific antibody, e.g., Tb-labeled anti-p4E-BP1 T37/T46, (Invitrogen, product #PR8835A), EDTA, and TR-FRET buffer solution (Invitrogen, Product #PR3756B). Product formation is detected by way of time-resolved fluorescence resonance energy transfer (TR-FRET), which occurs when the phosphorylated substrate and labeled antibody are in close proximity due to phospho-specific binding. Enzymatic activity is measured as an increase in TR-FRET signal using a Perkin Elmer Envision plate reader.
Compound activity is tested in 10 point dose curves starting at the highest final concentration of 10 uM. They are serially diluted in 100% DMSO prior to further dilution with assay buffer. […] 8 μL of solution containing 2 nM Tb-anti-p4E-BP1 antibody & 10 mM EDTA diluted TR-FRET buffer is then added and incubated for 30 minutes to stop the reaction. The plate is scanned with the Envision plate reader. Ki values are calculated in Assay Explorer using the Morrison ATP-competitive tight binding equation for Ki apparent determination.
A general note: In TR-FRET formats the signal depends on donor and acceptor labels being close together.

In assay [3] the test system is PC3 cells. Description: In vitro cell proliferation assay. The format is cell-based. To be noted: Homo sapiens. How it is done: Efficacy of Formula I compounds were measured by a cell proliferation assay employing the following protocol: 1. An aliquot of 20 μl of cell culture containing about 10^3 cells (PC3 or MDAMB361.1) in medium was deposited in each well of a 384-well, opaque-walled plate. 2. Control wells were prepared containing medium and without cells; Cells were allowed to settle overnight. 3. The compound was added to the experimental wells and incubated for 3 days. 4. The plates were equilibrated to room temperature for approximately 30 minutes. 5. A volume of CellTiter-Glo Reagent equal to the volume of cell culture medium present in each well was added. 6. The contents were mixed for 2 minutes on an orbital shaker to induce cell lysis. 7. The plate was incubated at room temperature for 20 minutes to stabilize the luminescence signal. […] Luminescence was recorded and reported in graphs as RLU=relative luminescence units. Alternatively, cells were seeded at optimal density in a 96 well plate and incubated for 4 days in the presence of test compound. […] IC50 values were calculated using a sigmoidal dose response curve fit.

Assay [4] relates to AKT serine-473 phosphorylation in EGF-stimulated PC-3 cells. Put plainly: In vitro phospho-AKT serine 473 cellular assay. It is filed as cell-based. To be noted: Homo sapiens. How it is done:
The PC-3 cell line is maintained in RPMI1640 media supplemented with 10% FBS, 2 mM Glutamine, and 10 mM HEPES pH 7.4 at 37° C. in a 5% CO2 humidified incubator.
Cells are seeded in 384-well plates at 7,000 cells/well in […] growth media. After 24 hours, growth media is removed and replaced with RPMI1640 containing no FBS. Cells are treated with 10 concentrations of test compounds or DMSO alone for controls (final DMSO concentration 0.5%) and incubated at 37° C. for 30 minutes. Cells are then stimulated for 10 minutes with 100 ng/ml EGF (final concentration). One column of controls is not stimulated with EGF to observe the signal ratio between stimulated and non-stimulated cells. After 10 minutes, compounds and stimulation media are removed and replaced with 25 μl lysis buffer containing protease inhibitors and phosphatase inhibitors. This buffer contains detergent to bring about cellular disruption. […] Following the transfer of lysate to the MSD plate, AKT in the lysate is captured on the coated antibody by incubation on a shaker at 4° C. for 16 hours. Following the capture step the plate is washed and then incubated for two hours with an antibody to S473 phosphorylated AKT which is conjugated with a Sulfo-Tag. This tag gives a signal when in proximity to the electrode on the base of the MSD plate. Binding the tagged antibody to the captured protein allow detection on a MSD reader.
EC50 values are calculated using MDL Assay Explorer 3.0.1.8 fitting a sigmoidal curve with a variable slope.

The mark [5] stands for this setting: PC-3, with PC3 cells, read-out: IC50 value, cell proliferation.
[6] abbreviates: recombinant mTOR+GBL, 8 uM ATP, Ki apparent.
[7] abbreviates: PC-3 cells stimulated with EGF, read-out: EC50 activity level, inhibition of S473 AKT phosphorylation.
[8] abbreviates: PC-3, read-out: IC50 value, cell proliferation.

Like-named read-outs stand apart in the source and are kept apart here.

T1 sequence (P42336 whole entry, species assumed): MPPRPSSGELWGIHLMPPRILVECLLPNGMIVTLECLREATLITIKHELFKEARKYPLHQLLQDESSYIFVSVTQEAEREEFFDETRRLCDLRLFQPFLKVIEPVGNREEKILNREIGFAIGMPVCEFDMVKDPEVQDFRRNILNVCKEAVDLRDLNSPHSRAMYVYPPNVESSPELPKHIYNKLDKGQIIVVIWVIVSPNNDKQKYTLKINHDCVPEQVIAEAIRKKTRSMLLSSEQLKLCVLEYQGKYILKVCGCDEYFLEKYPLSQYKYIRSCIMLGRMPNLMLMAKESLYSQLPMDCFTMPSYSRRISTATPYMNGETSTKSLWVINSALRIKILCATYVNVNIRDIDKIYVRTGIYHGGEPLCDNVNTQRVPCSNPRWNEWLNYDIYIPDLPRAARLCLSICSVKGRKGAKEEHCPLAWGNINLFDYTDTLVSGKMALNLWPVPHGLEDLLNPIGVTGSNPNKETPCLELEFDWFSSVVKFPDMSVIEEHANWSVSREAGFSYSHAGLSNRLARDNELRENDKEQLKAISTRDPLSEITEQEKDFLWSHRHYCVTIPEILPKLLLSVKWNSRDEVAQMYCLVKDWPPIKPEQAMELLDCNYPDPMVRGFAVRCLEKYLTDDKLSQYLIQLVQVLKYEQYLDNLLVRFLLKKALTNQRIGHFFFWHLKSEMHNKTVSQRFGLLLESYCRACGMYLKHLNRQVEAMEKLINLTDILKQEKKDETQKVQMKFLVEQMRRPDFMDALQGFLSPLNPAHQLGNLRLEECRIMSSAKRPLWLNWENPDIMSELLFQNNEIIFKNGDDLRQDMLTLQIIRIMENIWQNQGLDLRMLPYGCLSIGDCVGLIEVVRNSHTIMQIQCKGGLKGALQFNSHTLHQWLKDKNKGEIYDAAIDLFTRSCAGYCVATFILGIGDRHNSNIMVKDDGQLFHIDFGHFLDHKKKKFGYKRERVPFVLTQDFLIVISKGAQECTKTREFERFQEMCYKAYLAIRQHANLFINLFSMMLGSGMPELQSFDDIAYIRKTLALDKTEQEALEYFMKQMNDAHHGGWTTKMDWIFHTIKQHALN
T1 sequence (P27986 whole entry partner, species assumed): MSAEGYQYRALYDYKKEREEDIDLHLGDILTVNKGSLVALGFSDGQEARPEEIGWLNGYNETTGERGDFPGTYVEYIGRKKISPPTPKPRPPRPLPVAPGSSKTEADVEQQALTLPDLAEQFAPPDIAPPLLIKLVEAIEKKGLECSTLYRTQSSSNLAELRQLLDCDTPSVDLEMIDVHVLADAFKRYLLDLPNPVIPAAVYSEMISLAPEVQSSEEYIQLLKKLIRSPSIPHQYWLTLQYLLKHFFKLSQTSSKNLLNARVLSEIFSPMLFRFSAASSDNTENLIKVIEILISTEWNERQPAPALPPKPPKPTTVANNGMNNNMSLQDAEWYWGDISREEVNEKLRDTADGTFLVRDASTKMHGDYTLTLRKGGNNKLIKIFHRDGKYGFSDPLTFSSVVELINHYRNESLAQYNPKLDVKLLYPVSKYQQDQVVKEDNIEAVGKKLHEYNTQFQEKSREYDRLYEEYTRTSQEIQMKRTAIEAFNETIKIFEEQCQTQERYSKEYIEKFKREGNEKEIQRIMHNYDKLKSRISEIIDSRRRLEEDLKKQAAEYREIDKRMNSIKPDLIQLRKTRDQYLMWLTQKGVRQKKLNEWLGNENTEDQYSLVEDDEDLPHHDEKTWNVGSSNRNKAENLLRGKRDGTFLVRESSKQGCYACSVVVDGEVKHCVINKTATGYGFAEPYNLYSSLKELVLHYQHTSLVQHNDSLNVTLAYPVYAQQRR

Turning to `CCNC(=O)Nc1ccc(-c2nc(N3CCOC[C@@H]3C)c3ncn(CC)c3n2)cc1` [(S)-1-ethyl-3-(4-(9-ethyl-6-(3-methylmorpholino)-9H-purin-2-yl)phenyl)urea, reference compound], the “selectivity for mTOR kinase over related PI3 kinase (PI3K-alpha)” value (from here on “selectivity for mTOR kinase”) in assay [1] is given as 45 ×.
Take `CCNC(=O)Nc1ccc(-c2nc(N3CCOC[C@@H]3C)c3ncn(C)c3n2)cc1` [(S)-1-ethyl-3-(4-(9-methyl-6-(3-methylmorpholino)-9H-purin-2-yl)phenyl)urea, reference compound]: the “selectivity for mTOR kinase” value in assay [1] is reported as 29 ×.
As to `CCNC(=O)Nc1ccc(-c2nc(N3CCOCC3)c3c(ncn3C)n2)cc1` [Compound 101, 1-ethyl-3-(4-(7-methyl-6-morpholino-7H-purin-2-yl)phenyl)urea], in assay [2], the Ki was found to be 143 nM.
Regarding `CCNC(=O)Nc1ccc(-c2nc(N3CCOC[C@@H]3C)c3c(ncn3C)n2)cc1` [Compound 102, (S)-1-ethyl-3-(4-(7-methyl-6-(3-methylmorpholino)-7H-purin-2-yl)phenyl)urea], the IC50 in assay [3] (setting [5]) stood at 294 nM.
In the case of `CCNC(=O)Nc1ccc(-c2nc(N3CCOC[C@H]3C)c3c(ncn3C)n2)cc1` [Compound 103, (R)-1-ethyl-3-(4-(7-methyl-6-(3-methylmorpholino)-7H-purin-2-yl)phenyl)urea], in assay [3] (setting [5]), the IC50 was 10000 nM.
For `CCNC(=O)Nc1ccc(-c2nc(N3CCOC[C@@H]3CC)c3c(ncn3C)n2)cc1` [Compound 104, (S)-1-ethyl-3-(4-(6-(3-ethylmorpholino)-7-methyl-7H-purin-2-yl)phenyl)urea], the Ki in assay [2] (setting [6]) amounted to 4 nM. Also, in assay [4] (PC-3, read-out: EC50 activity level, inhibition of S473 AKT phosphorylation), the EC50 (usually the concentration that produces a half-maximal response) was found to be 69 nM. In addition, in assay [3] (setting [5]), the IC50 turned out to be 737 nM.
In the case of `CCNC(=O)Nc1ccc(-c2nc(N3CCCOCC3)c3c(ncn3C)n2)cc1` [Compound 105, 1-ethyl-3-(4-(7-methyl-6-(1,4-oxazepan-4-yl)-7H-purin-2-yl)phenyl)urea], the Ki in assay [2] (setting [6]) stood at 121 nM.
On to `CCNC(=O)Nc1ccc(-c2nc(N3CCOC[C@@H]3C)c3c(ncn3CC)n2)cc1` [Compound 106, (S)-1-ethyl-3-(4-(7-ethyl-6-(3-methylmorpholino)-7H-purin-2-yl)phenyl)urea], for which the Ki in assay [2] (setting [6]) was determined as 40 nM. Besides, in assay [4] (setting [7]), the EC50 was 511 nM. For the same compound, in assay [1], the “selectivity for mTOR kinase” value is 250 ×. In assay [3] (setting [8]), the IC50 amounted to 4200 nM.
With `CCCCc1nc2nc(-c3ccc(NC(=O)NCC)cc3)nc(N3CCOC[C@@H]3C)c2n1C` [Compound 107, (S)-1-(4-(8-butyl-7-methyl-6-(3-methylmorpholino)-7H-purin-2-yl)phenyl)-3-ethylurea], in assay [2], the Ki is 53 nM. Further, the IC50 in assay [3] (setting [5]) amounted to 2400 nM.
On to `CCNC(=O)Nc1ccc(-c2nc(N3CCOC[C@@H]3C)c3c(n2)nc(C(C)(C)O)n3C)cc1` [Compound 108, (S)-1-ethyl-3-(4-(8-(2-hydroxypropan-2-yl)-7-methyl-6-(3-methylmorpholino)-7H-purin-2-yl)phenyl)urea], for which the Ki in assay [2] (setting [6]) came out at 30 nM. The EC50 in assay [4] (setting [7]) worked out at 3500 nM. In addition, the IC50 in assay [3] (setting [8]) is 8000 nM.
Take `CCNC(=O)Nc1ccc(-c2nc(N3C[C@@H]4C[C@H]3CO4)c3c(cnn3C)n2)cc1` [Compound 109, 1-(4-(7-((1S,4S)-2-oxa-5-azabicyclo[2.2.1]heptan-5-yl)-1-methyl-1H-pyrazolo[4,3-d]pyrimidin-5-yl)phenyl)-3-ethylurea]: the Ki in assay [2] was found to be 8 nM. In addition, the IC50 in assay [3] (setting [8]) is 399 nM.
Consider `CCNC(=O)Nc1ccc(-c2nc(N3CCOC[C@@H]3C)c3c(cnn3C)n2)cc1` [Compound 110, (S)-1-ethyl-3-(4-(1-methyl-7-(3-methylmorpholino)-1H-pyrazolo[4,3-d]pyrimidin-5-yl)phenyl)urea], for which the Ki in assay [2] was determined as 1 nM. Also, the “selectivity for mTOR kinase” value in assay [1] was 1250 ×. In addition, the IC50 in assay [3] (setting [8]) amounted to 131 nM.
Regarding `CCNC(=O)Nc1ccc(-c2nc(N3CCOC[C@@H]3CC)c3c(cnn3C)n2)cc1` [Compound 111, (S)-1-ethyl-3-(4-(7-(3-ethylmorpholino)-1-methyl-1H-pyrazolo[4,3-d]pyrimidin-5-yl)phenyl)urea], in assay [2], the Ki was found to be 28 nM. Moreover, the IC50 in assay [3] (setting [5]) turned out to be 2900 nM.
On to `CCNC(=O)Nc1ccc(-c2nc(N3CCOC[C@@H]3CC)c3c(n2)c(C)nn3C)cc1` [Compound 112, (S)-1-ethyl-3-(4-(7-(3-ethylmorpholino)-1,3-dimethyl-1H-pyrazolo[4,3-d]pyrimidin-5-yl)phenyl)urea], for which the Ki in assay [2] (setting [6]) was determined as 2 nM. Besides, the IC50 in assay [3] (setting [5]) turned out to be 86 nM.
For the compound `C[C@H]1COCCN1c1nc(-c2ccc(NC(=O)NC3COC3)cc2)nc2cnn(C)c12` [Compound 113, (S)-1-(4-(1-methyl-7-(3-methylmorpholino)-1H-pyrazolo[4,3-d]pyrimidin-5-yl)phenyl)-3-(oxetan-3-yl)urea], in assay [2], the Ki is 39 nM. In addition, the IC50 in assay [3] (setting [5]) came out at 5900 nM.
`C[C@H]1COCCN1c1nc(-c2ccc(NC(=O)NCCS(C)(=O)=O)cc2)nc2cnn(C)c12` [Compound 114, (S)-1-(4-(1-methyl-7-(3-methylmorpholino)-1H-pyrazolo[4,3-d]pyrimidin-5-yl)phenyl)-3-(2-(methylsulfonyl)ethyl)urea]: the Ki in assay [2] was found to be 145 nM.

The values are drawn from patent publication US8828990B2, “N-7 substituted purine and pyrazolopyrimine compounds, compositions and methods of use” (priority 2009, dated 2014).
